Reference: patent US20240415791A1, “Therapeutic methods and compositions for treating cancer using devimistat and a fatty acid oxidation inhibitor, a tyrosine kinase inhibitor, a glutaminase inhibitor, and/or a glycolysis inhibitor” (Cornerstone Pharmaceuticals, Inc., priority 2021, published 2024)
“Also recorded” adds a separate entry of the source.

Tests used:
Assay type in all cases: cell-based, human
AsPC1 cells [1] = test: Acute ATP synthesis rescue by exogenous carbon sources in AsPC1 cells treated with devimistat and GPi; details: AsPC1, 50 μM GPi, 60 μM devimistat, 50 μM oleic acid
AsPC1 cells [2] = test: Devimistat-induced cell death (ATP after recovery) in AsPC1 cells; details: AsPC1, nutrient-free CBS2, treatment followed by recovery in serum-free RPMI
Procedure: Cells were plated at 80% confluency in complete RPMI in black, clear bottom 96-well plates or 35-mm dishes for ATP, protein and glycogen analysis, or glass coverslips for fluorescence visualization. […] Prior to drug treatment, cells were incubated in a nutrient-free carbonate buffered salt solution (CBS2) for 3 hours. Drug treatments were then carried out in CBS2 with addition of nutrient sources and/or chemical agents as described in the Examples and Figures.
(§1) LOGIC: High throughput, plate reader assays for cell death essentially always ultimately depend on metabolic activity of cells to identify viability, directly or indirectly. Thus, strong inhibition of metabolic activity by anti-metabolism agents like those described herein can confound cell death analysis by such assays. […] The inventors thus used a recovery-based assay wherein cells are treated with anti-metabolic agents under conditions where mitochondrial metabolism is (or becomes) limiting on viability. After experimental treatment, drug and media are removed and cells are allowed to recover in serum-free RPMI. RPMI provides high levels of glucose in support of glycolytic ATP generation (independently of mitochondrial function), allowing viable cells to recover ATP levels that are ultimately measured in the plate assay to score cell viability.
Survival is assessed by conventional luminescence measurement of ATP levels after this recovery.
TECHNICAL DETAILS: Immediately after drug treatments, acute ATP levels of cells in black, clear bottom 96-well plates were measured using the CellTiter-Glo® Luminescent Cell Viability Assay (catalog #G775B) following Promega (Madison, WI) protocols. […] After this recovery period ATP levels were measured using the CellTiter-Glo® Luminescent Cell Viability Assay as described above.
Survival is assessed by conventional luminescence measurement of ATP levels after this recovery. See the Methods section above for a detailed description of this assay and its validation.

PANC1 cells = test: Devimistat-induced cell death (ATP after recovery) in PANC1 cells; details: PANC1, nutrient-free CBS2, treatment followed by recovery in serum-free RPMI
Procedure: Cells were plated at 80% confluency in complete RPMI in black, clear bottom 96-well plates or 35-mm dishes for ATP, protein and glycogen analysis, or glass coverslips for fluorescence visualization. To create low nutritional conditions, cells were seeded in complete media, after 24 hours cells were transferred to serum free RPMI for 18-24 hours. Prior to drug treatment, cells were incubated in a nutrient-free carbonate buffered salt solution (CBS2) for 3 hours. Drug treatments were then carried out in CBS2 with addition of nutrient sources and/or chemical agents as described in the Examples and Figures.
as §1, with “cell viability. Under these conditions, cells that are committed to execution of cell death by the experimental treatment score as dead and cells that have not committed to cell death recover ATP levels and score as viable.” for “cell viability.”
Specifically, after exposure to the treatments indicated, cells are allowed to recover ([…]) in RPMI without serum. Survival is assessed by conventional luminescence measurement of ATP levels after this recovery.
TECHNICAL DETAILS: Immediately after drug treatments, acute ATP levels of cells in black, clear bottom 96-well plates were measured using the CellTiter-Glo® Luminescent Cell Viability Assay (catalog #G775B) following Promega (Madison, WI) protocols. To assess cell viability, after drug treatments, drug/agent-containing medium was replaced with serum-free RPMI and cells were incubated for an additional 17-24 hours to allow recovery of viable cells, without additional cell division. After this recovery period ATP levels were measured using the CellTiter-Glo® Luminescent Cell Viability Assay as described above.
A. Exogenous glucose protects from devimistat-induced cell death. Four different cell lines were exposed for 15 hours (PANC1, AsPC1, H460) or 8 hours (PC3) to the indicated range of devimistat doses in the absence of exogenous nutrients (in carbonate buffered balanced salts solution, CBS2) after 3 hours of preincubation in CBS2 (for cell adaptation and to equilibrate soluble nutrient pools). Cells were exposed to the treatments indicated, followed by recovery (24 hours) in RPMI without serum (providing nutrient support for viable cell recovery, without serum factors for cell division). Survival is assessed by conventional luminescence measurement of ATP levels after this recovery. […] The relatively large quantitative differences in devimistat sensitivity between cell lines under exogenous nutrient deprivation are characteristic of each line (see examples below), with small experiment-to-experiment variation. […]

AsPC1 cells [3] = test: Glycogen content in AsPC1 cells; details: AsPC1, CBS2, 3 hours
Procedure: Glycogen was quantified using the Glycogen Assay Kit II (colorimetric) from AbCam (ab169558) according to manufacturer's instructions. Briefly, approximately 2×10^6 cells were washed with ice-cold PBS and collected via scraping in 300 μL ice-cold ddH2O. Cells were immediately sonicated on ice for 5× […] pulses with a probe sonicator (Misonix Inc, model XL2000), then heated to 80° C. for 10 min. Samples were stored O/N at −20° C., then thawed, centrifuged at 12,000×g for 10 min and the supernatants collected for glycogen hydrolysis and quantification according to manufacturer's instructions.
C. […] Cells were treated in CBS2 for 3 hours with 30 μM devimistat or mock treated (FIG. 2C, left), or treated for 3 hours with the indicated devimistat doses (FIG. 2C, right).
D. Effects of anti-metabolism agents on glycogen consumption in PANC1 and AsPC1 cells. […] Glycogen content was measured in cell lysates (see Methods, above) and the results are presented in the left and middle graphs in FIG. 3D (note the different vertical scales for PANC1 and AsPC1 plots).

[4] = tested on: H460, PC3 and SW620 cells; test: Devimistat cell killing with thioridazine in other cell lines; details: 10 μM devimistat, 21 hours treatment, 22 hours recovery
AsPC1 cells [5] = test: CO2 release from 14C-oleic acid in AsPC1 cells; details: AsPC1, CBS2, 50 μM GPi, 40 μM oleic acid

For CSc1ccc2c(c1)N(CCC1CCCCN1C)c1ccccc1S2 (stereo not drawn) [TZ, 2-methylmercapto-10-[2-(N-methyl-2-piperidyl)ethyl] phenothiazine], the “inhibition of oleic acid (OA)-driven acute ATP synthesis / OA rescue” value (AsPC1 cells [1]) was “strongly inhibited”, the “sensitization to devimistat-induced cell death, agent combined with devimistat” value (AsPC1 cells [2]) was “Synergy observed; also recorded: enhances devimistat effects” and the “sensitization to devimistat-induced cell death, agent combined with devimistat” value (PANC1 cells) was “Synergy observed”. For the same compound, the glycogen consumption (AsPC1 cells [3]) was “accelerates glycogen consumption”, the “enhancement of devimistat cell killing” value [4] was “enhances devimistat cell killing” and the “oleic acid beta-oxidation (CO2 release from oleate)” value (AsPC1 cells [5]) was “block oleic acid beta-oxidation”.
